Experimental data from article PMC5515969, “Effects of 31 FDA approved small-molecule kinase inhibitors on isolated rat liver mitochondria” (Archives of Toxicology, 2016).
Like-named read-outs stand apart in the source and are kept apart here.

Assays:
[1] = tested on: isolated rat liver mitochondria; assay: Mitochondrial oxygen consumption (glutamate/malate or succinate driven, state 4 and state 3); type: biochemical; details: for Glutamate/malate driven respiration State 3 / Glutamate/malate driven respiration State 4 / Succinate-driven respiration State 3 / Succinate-driven respiration State 4: oxygen consumption, DMSO-treated = 1; for State 3 respiration driven by succinate at 10XCmax: key: 0 indicates that the drug had no effects (negative); for State 3 respiration driven by succinate at 1XCmax: key: 0 indicates that the drug had no effects (negative)
Summary of the method: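 Rat liver mitochondria (1 mg/ml protein) exposed 5 min to kinase inhibitors in 0.1% DMSO, then O2 consumption measured by Clark-type electrode with glutamate/malate or succinate (state 4), ADP added after 3 min (state 3). Rates normalized to 0.1% DMSO controls set to 1.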

RCC I = RCC I activity in submitochondrial particles; type: biochemical, rat; parameters: key to RCC I at 10XCmax / RCC I at 100XCmax / RCC I at 50XCmax / RCC I at 30XCmax / RCC I at 20XCmax: activity relative to DMSO-treated controls (control set as 1 = 100%)
Summary of the method: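 Activity relative to DMSO (set as 1) after 15-min exposure of submitochondrial particles (1 mg/ml) to compound. RCC I is defined as rotenone-sensitive activity and RCC II is followed at 600 nm over 6 min.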

RCC II = biological target: T1, RCC II (Rattus norvegicus, UniProt P21913+Q641Z9+Q6PCT8+Q920L2); assay: RCC II activity in submitochondrial particles; type: biochemical; parameters: key: activity relative to DMSO-treated controls (control set as 1 = 100%); details: relative to DMSO treated samples
T1 construct: Submitochondrial particles were prepared by subjecting the intact mitochondria to three successive freeze–thaw cycles; from tissue; host or cells: rat liver mitochondria, used as submitochondrial particles
T1 sequence (Q920L2 35-656): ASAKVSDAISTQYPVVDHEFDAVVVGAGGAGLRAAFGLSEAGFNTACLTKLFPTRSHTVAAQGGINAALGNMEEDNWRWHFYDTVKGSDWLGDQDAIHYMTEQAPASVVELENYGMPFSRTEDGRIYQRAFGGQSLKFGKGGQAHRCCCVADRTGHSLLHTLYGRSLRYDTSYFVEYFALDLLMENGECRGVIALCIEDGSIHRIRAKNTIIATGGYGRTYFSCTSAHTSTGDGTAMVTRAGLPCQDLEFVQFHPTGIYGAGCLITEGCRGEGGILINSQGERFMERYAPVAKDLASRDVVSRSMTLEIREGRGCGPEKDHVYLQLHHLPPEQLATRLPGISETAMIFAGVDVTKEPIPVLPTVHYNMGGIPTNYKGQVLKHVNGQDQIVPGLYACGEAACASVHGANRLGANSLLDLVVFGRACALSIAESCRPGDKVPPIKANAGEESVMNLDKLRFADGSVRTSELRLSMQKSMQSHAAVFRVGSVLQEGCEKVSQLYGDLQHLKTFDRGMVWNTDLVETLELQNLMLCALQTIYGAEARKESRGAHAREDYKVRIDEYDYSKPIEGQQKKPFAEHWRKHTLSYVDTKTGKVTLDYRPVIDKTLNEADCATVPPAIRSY
T1 sequence (P21913 31-282): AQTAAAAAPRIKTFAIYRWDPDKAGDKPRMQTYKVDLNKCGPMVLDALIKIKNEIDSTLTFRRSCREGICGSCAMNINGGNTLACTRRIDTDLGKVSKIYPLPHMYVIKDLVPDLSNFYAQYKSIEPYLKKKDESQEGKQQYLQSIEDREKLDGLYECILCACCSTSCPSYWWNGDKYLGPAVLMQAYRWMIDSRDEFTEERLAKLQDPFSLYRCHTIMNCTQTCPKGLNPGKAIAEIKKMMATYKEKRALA
T1 sequence (Q641Z9 1-169): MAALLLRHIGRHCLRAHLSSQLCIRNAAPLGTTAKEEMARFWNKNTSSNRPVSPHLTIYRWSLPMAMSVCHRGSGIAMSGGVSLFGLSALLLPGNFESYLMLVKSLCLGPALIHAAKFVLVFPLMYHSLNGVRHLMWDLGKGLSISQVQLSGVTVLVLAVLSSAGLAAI
T1 sequence (Q6PCT8 57-159): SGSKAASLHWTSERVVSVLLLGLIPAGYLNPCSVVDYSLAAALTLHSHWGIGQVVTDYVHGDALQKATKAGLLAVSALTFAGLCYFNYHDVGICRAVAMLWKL
Summary of the method: (§1)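 First, submitochondrial particles (1 mg/ml) are incubated with inhibitor for 15 min. Next, complex activities are followed spectrophotometrically, with RCC I taken as the difference between buffers lacking and containing rotenone. Finally, activities are expressed relative to DMSO controls set at 1.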

RCC III = RCC III activity in submitochondrial particles; type: biochemical, rat; details: 10-fold Cmax; 15 min; DMSO-treated = 100
Summary of the method: as §1

RCC V = RCC V activity in submitochondrial particles; type: biochemical, rat; for RCC V at 5XCmax: key: 0 indicates that the drug had no effects (negative)
Summary of the method: as §1

[2] = tested on: isolated rat liver mitochondria; assay: Mitochondrial swelling (absorbance at 535 nm); type: biochemical
[3] = tested on: isolated rat liver mitochondria; details: positive control alamethicin treated samples
[4] = cited from earlier work
[5] = cited from earlier work; remark: listed apart in the source
[6] = tested on: isolated rat liver mitochondria; assay: Mitochondrial ROS production (CM-H2DCFDA)
[7] = 1XCmax, DMSO treated samples set as 1
[8] = 2.5XCmax, DMSO treated samples set as 1
[9] = 5XCmax, DMSO treated samples set as 1
[10] = 10XCmax, DMSO treated samples set as 1
[11] = 10-fold Cmax, 15 min, DMSO-treated = 100

CNC(=O)c1cc(Oc2ccc(NC(=O)Nc3ccc(Cl)c(C(F)(F)F)c3)c(F)c2)ccn1 [Regorafenib]
Glutamate/malate driven respiration State 3 ([1]; 1-fold Cmax): 2.33 ± 0.06 | Glutamate/malate driven respiration State 4 ([1]; 1-fold Cmax): 7.45 ± 0.17 | Succinate-driven respiration State 3 ([1]; 1-fold Cmax): 1.05 ± 0.07 | Succinate-driven respiration State 4 ([1]; 1-fold Cmax): 2.95 ± 0.08 | State 3 respiration driven by glutamate/malate at 1XCmax [1, 7]: 2.33±0.06 | State 3 respiration driven by succinate at 1XCmax [1, 7]: 0 | State 4 respiration driven by glutamate/malate at 1XCmax [1, 7]: 7.45±0.17 | State 4 respiration driven by succinate at 1XCmax [1, 7]: 2.95±0.08 | Glutamate/malate driven respiration State 3 ([1]; 2.5-fold Cmax): 2.51 ± 0.04 | Glutamate/malate driven respiration State 4 ([1]; 2.5-fold Cmax): 5.51 ± 0.35 | Succinate-driven respiration State 3 ([1]; 2.5-fold Cmax): 0.84 ± 0.04 | Succinate-driven respiration State 4 ([1]; 2.5-fold Cmax): 3.59 ± 0.14 | State 3 respiration driven by glutamate/malate at 2.5XCmax [1, 8]: 2.51±0.04 | State 3 respiration driven by succinate at 2.5XCmax [1, 8]: 0 | State 4 respiration driven by glutamate/malate at 2.5XCmax [1, 8]: 5.51±0.35 | State 4 respiration driven by succinate at 2.5XCmax [1, 8]: 3.59±0.14 | Glutamate/malate driven respiration State 3 ([1]; 5-fold Cmax): 1.33 ± 0.04 | Glutamate/malate driven respiration State 4 ([1]; 5-fold Cmax): 3.82 ± 0.72 | Succinate-driven respiration State 3 ([1]; 5-fold Cmax): 0.83 ± 0.03 | Succinate-driven respiration State 4 ([1]; 5-fold Cmax): 1.69 ± 0.09 | State 3 respiration driven by glutamate/malate at 5XCmax [1, 9]: 1.33±0.04 | State 3 respiration driven by succinate at 5XCmax [1, 9]: 0 | State 4 respiration driven by glutamate/malate at 5XCmax [1, 9]: 3.82±0.72 | State 4 respiration driven by succinate at 5XCmax [1, 9]: 1.69±0.09 | Glutamate/malate driven respiration State 3 ([1]; 10-fold Cmax): 1.36 ± 0.03 | Glutamate/malate driven respiration State 4 ([1]; 10-fold Cmax): 3.84 ± 0.34 | Succinate-driven respiration State 3 ([1]; 10-fold Cmax): 0.82 ± 0.19 | Succinate-driven respiration State 4 ([1]; 10-fold Cmax): 1.78 ± 0.19 | State 3 respiration driven by glutamate/malate at 10XCmax [1, 10]: 1.36±0.03 | State 3 respiration driven by succinate at 10XCmax [1, 10]: 0 | State 4 respiration driven by glutamate/malate at 10XCmax [1, 10]: 3.84±0.34 | State 4 respiration driven by succinate at 10XCmax [1, 10]: 1.78±0.19 | effect on state 4 respiration ([1]; highest tested concentrations): significant increases | lowest concentration significantly affecting mitochondrial oxygen consumption ([1]; tested at 1 to 100-fold Cmax): equal to Cmax | RCC activity I (RCC I; [11]): 99.37 ± 3.35 % of control | RCC I at 10XCmax (RCC I; 10XCmax, relative to DMSO treated samples): 0 | RCC II at 1.0XCmax (RCC II; 1.0XCmax): 0 | RCC II at 2.5XCmax (RCC II; 2.5XCmax): 0 | RCC II at 5XCmax (RCC II; 5XCmax): 0 | RCC II at 10XCmax (RCC II; 10XCmax): 83.50±2.91 | RCC activity III (RCC III): 90.31 ± 13.61 % of control | RCC V at 5XCmax (RCC V; 5XCmax, relative to DMSO treated samples): 0 | RCC activity V (RCC V; [11]): 90.36 ± 13.39 % of control | lowest concentration causing mitochondrial swelling [2]: onefold | Swelling 1XCmax ([2]; 1XCmax, difference in signal between KI and DMSO treated samples at the end of experiments): 0.46±0.03 | mitochondrial swelling ([2]; onefold Cmax): almost maximal swelling | effect on mitochondrial swelling ([2]; up to 100-fold Cmax or highest testable concentration, 25 µM calcium chloride): significant mitochondrial swelling | Cytochrome c release 1XCmax ([3]; 1XCmax): 10.72±1.87 percentage of the positive control group | Cytochrome c release 2.5XCmax ([3]; 2.5XCmax): 22.56±1.84 percentage of the positive control group | Cytochrome c release 5XCmax ([3]; 5XCmax): 10.26±0.36 percentage of the positive control group | Cytochrome c release 10XCmax ([3]; 10XCmax): 7.42±0.36 percentage of the positive control group | Cmax ([4]; human therapeutic Cmax at FDA recommended dosages, ref product labeling and drug approval packages at the official FDA website): 8.08 µM | Cmax ([4]; therapeutic maximal blood concentration, ref product labeling): 3900 ng/mL | DILI potential (based on labeling) ([5]; 1 = DILI positive, 0 = negative, ref product labeling): 1 | Labeling for DILI ([5]; BBW: black box warning, W&P: Warnings and Precautions, ref product labeling): BBW: fatal DILI | labeling for DILI ([5]; W&P warnings and precautions, BBW black box warnings, ref FDA product labeling): BBW: fatal DILI | DILI potential (based on labeling) ([5]; ref FDA product labeling): 1 | ROS measured by CM-H2DCFDA at 1XCmax [6, 7]: 0 | ROS measured by CM-H2DCFDA at 2.5XCmax [6, 8]: 0 | ROS measured by CM-H2DCFDA at 5XCmax [6, 9]: 0 | ROS measured by CM-H2DCFDA at 10XCmax [6, 10]: 0 | effect on ROS production ([6]; highest tested concentrations): neither of them affected ROS production
